Experimental data published in patent US11851418B2, “Heteroaromatic carboxamide derivatives as plasma kallikrein inhibitors” (Boehringer Ingelheim International GmbH, priority 2020, dated 2023).

How the values were obtained:
Assay type in all cases: biochemical
[1] = target: T1, PKK in kaolin activated human platelet poor plasma (Homo sapiens, UniProt P03952); assay: Inhibition of PKK in kaolin activated human PPP; settings: kaolin (25, 75, 250, 750 μg/mL) activated human PPP, global fit
T1 construct: Platelet poor plasma (PPP) obtained from human wholeblood; from tissue
T1 sequence (P03952 391-638 limits assumed): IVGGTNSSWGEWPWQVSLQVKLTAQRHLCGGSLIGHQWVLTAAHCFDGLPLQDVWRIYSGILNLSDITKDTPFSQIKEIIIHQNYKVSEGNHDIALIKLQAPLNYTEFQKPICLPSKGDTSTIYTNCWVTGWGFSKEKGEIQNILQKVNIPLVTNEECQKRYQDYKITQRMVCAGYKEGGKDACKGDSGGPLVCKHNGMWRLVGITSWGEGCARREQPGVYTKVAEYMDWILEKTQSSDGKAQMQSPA
T1 sequence (P03952 20-390 partner limits assumed): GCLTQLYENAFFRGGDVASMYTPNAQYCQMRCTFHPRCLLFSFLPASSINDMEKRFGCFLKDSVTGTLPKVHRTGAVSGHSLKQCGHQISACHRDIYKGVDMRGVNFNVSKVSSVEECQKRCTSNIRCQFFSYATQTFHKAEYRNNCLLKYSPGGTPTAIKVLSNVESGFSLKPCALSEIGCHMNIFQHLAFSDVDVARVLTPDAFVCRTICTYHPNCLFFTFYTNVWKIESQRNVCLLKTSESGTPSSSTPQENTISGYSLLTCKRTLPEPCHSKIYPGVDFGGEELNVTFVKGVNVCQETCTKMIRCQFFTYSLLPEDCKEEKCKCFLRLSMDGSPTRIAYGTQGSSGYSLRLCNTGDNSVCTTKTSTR
Description: Platelet poor plasma (PPP) obtained from human wholeblood, anticoagulated with Na-Citrate, is incubated with various concentrations of the test compound together with either 25, 75, 250, or 750 μg/mL kaolin in assay buffer for 20 min at 37° C. such that for each kaolin dose used a concentration response is obtained for the test compound.

Human PKK = target: T2, Human PKK (Homo sapiens, UniProt P03952); assay: Inhibition of PKK using an endpoint assay; settings: fluorogenic substrate H-Pro-Phe-Arg-AMC, 1 h at room temperature
T2 construct: purchased Enzyme Research Laboratories
T2 sequence (P03952 391-638 limits assumed): as the sequence (P03952 391-638 limits assumed) above
T2 sequence (P03952 20-390 partner limits assumed): as the sequence (P03952 20-390 partner limits assumed) above
Description: (§1) The ability of compounds of formula (I) to inhibit plasma kallikrein (PKK), Factor XIIa (FXIIa), Factor XIa (FXIa), Factor Xa (FXa), Factor IIa (alpha-thrombin; FIIa), plasmin, trypsin, tissue kallikrein 1 (TK1), Factor Vila (FVIIa), or FVIIa complexed with Tissue Factor, phospholipids and CaCl2 (FVIIa/TF/PL/CaCl2) is determined using the following biochemical assays in assay buffer (100 mM Tris, 150 mM NaCL, adjusted to a pH of 7.8 with HCl, and containing 0.1% (w/v) BSA and 0.05% (v/v) Tween20) in the presence of 1% (v/v) DMSO:
Subsequently, PPACK 11 (Calbiochem) is added as a stop solution to achieve a final concentration of 1 μM and fluorescence is measured using an Envision Reader (PerkinElmer) with the wavelength excitation setting of 355 nm and the wavelength emission setting of 460 nm.

human TK1 = target: T3, human TK1 (Homo sapiens, UniProt P06870); assay: Inhibition of TK1 (Ki); settings: activated human TK1, substrate H-Pro-Phe-Arg-AMC, 24° C.; Ki from IC50 corrected for KM
T3 construct: purchased R&D Systems
T3 sequence (P06870 25-262): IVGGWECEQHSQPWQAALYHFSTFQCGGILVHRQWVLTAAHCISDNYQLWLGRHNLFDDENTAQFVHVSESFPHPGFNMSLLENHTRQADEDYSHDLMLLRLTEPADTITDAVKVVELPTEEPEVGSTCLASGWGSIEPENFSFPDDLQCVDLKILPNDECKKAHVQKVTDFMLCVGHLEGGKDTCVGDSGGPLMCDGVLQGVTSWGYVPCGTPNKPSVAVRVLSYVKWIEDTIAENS
Description: as §1
Prior to the assay, human TK1 (R&D Systems) is activated by incubation with human trypsin (Calbiochem) in a 1:10,000 ratio for 15 min at 37° C. For assaying TK1 inhibitory activity, activated TK1 (31.25 nM or 1 U/mL) is incubated at 24° C. with 0.1 mM fluorogenic substrate H-Pro-Phe-Arg-AMC (I1295 from Bachem) and various concentrations of the test compound in assay buffer. Measurements are performed in a kinetic interval every 2nd minute for 16 min using a Spectramax M5 (Molecular Devices) with the following settings of the wavelength excitation of 350 nm and wavelength emission of 450 nm.
The pIC50 values are then fitted using a four-parametric fitting procedure using GraphPad Prism (version 6; GraphPad Software, Inc.). […]

Cc1[nH]nc2c1CC[C@H]2NC(=O)c1cnn(Cc2ccc(N3CC4CC4C3)nc2C(F)(F)F)c1 (stereo partly drawn) [Example 13, 1-[(6-{3-Azabicyclo[3.1.0]hexan-3-yl}-2-(trifluoromethyl)pyridin-3-yl)methyl]-N-[(6R)-3-methyl-2H,4H,5H,6H-cyclopenta[c]pyrazol-6-yl]-1H-pyrazole-4-carboxamide]
IC90 [1]: 746 nM | IC50 (Human PKK): 1.9 nM | Ki (human TK1): > 10000 nM

Cc1[nH]nc2c1CC[C@H]2NC(=O)c1cn(Cc2ccc(N3CC4C(C3)C4(F)F)nc2C(F)F)cn1 (stereo partly drawn) [Example 11, 1-[(6-{6,6-Difluoro-3-azabicyclo[3.1.0]hexan-3-yl}-2-(difluoromethyl)pyridin-3-yl)methyl]-N-[(6R)-3-methyl-2H,4H,5H,6H-cyclopenta-[c]pyrazol-6-yl]-1H-imidazole-4-carboxamide]
IC90 [1]: 236 nM

Cc1[nH]nc2c1CC[C@H]2NC(=O)c1cnn(Cc2ccc(N3CC4CC4C3)nc2C(F)F)c1 (stereo partly drawn) [Example 7, 1-[(6-{3-Azabicyclo[3.1.0]hexan-3-yl}-2-(difluoromethyl)-pyridin-3-yl)methyl]-N-[(6R)-3-methyl-2H,4H,5H,6H-cyclopenta[c]pyrazol-6-yl]-1H-pyrazole-4-carboxamide]
IC90 [1]: 195 nM

Cc1[nH]nc2c1CC[C@H]2NC(=O)c1cnn(Cc2cnc(N3CC4CC4C3)cc2C(F)(F)F)c1 (stereo partly drawn) [Example 12, 1-[(6-{3-Azabicyclo[3.1.0]hexan-3-yl}-4-(trifluoromethyl)-pyridin-3-yl)methyl]-N-[(6R)-3-methyl-2H,4H,5H,6H-cyclopenta[c]pyrazol-6-yl]-1H-pyrazole-4-carboxamide]
IC50 (Human PKK): 2.6 nM

Cc1[nH]nc2c1CC[C@H]2NC(=O)c1cnn(Cc2ccc(N3CC4(CC4)C3)nc2C(F)F)c1 [Example 1, 1-[(6-{5-Azaspiro[2.3]hexan-5-yl}-2-(difluoromethyl)pyridin-3-yl)methyl]-N-[(6R)-3-methyl-2H,4H,5H,6H-cyclopenta[c]pyrazol-6-yl]-1H-pyrazole-4-carboxamide]
IC90 [1]: 182 nM | IC50 (Human PKK): 0.8 nM

Cc1[nH]nc2c1CC[C@H]2NC(=O)c1cnn(Cc2cnc(N3CC4CC4C3)nc2C(F)F)c1 (stereo partly drawn) [Example 2, 1-[(2-{3-Azabicyclo[3.1.0]hexan-3-yl}-4-(difluoromethyl)-pyrimidin-5-yl)methyl]-N-[(6R)-3-methyl-2H,4H,5H,6H-cyclopenta[c]pyrazol-6-yl]-1H-pyrazole-4-carboxamide]
IC90 [1]: 499 nM | IC50 (Human PKK): 1.8 nM

Cc1[nH]nc2c1CC[C@H]2NC(=O)c1cn(Cc2cnc(N3CC4CC4C3)cc2C(F)(F)F)cn1 (stereo partly drawn) [Example 9, 1-[(6-{3-Azabicyclo[3.1.0]hexan-3-yl}-4-(trifluoromethyl)-pyridin-3-yl)methyl]-N-[(6R)-3-methyl-2H,4H,5H,6H-cyclopenta[c]pyrazol-6-yl]-1H-imidazole-4-carboxamide]
IC90 [1]: 539 nM | IC50 (Human PKK): 1.8 nM | Ki (human TK1): > 10000 nM

Cc1[nH]nc2c1CC[C@H]2NC(=O)c1cn(Cc2ccc(N3CC4CC4C3)nc2C(F)F)cn1 (stereo partly drawn) [Example 6, 1-[(6-{3-Azabicyclo[3.1.0]hexan-3-yl}-2-(difluoromethyl)-pyridin-3-yl)methyl]-N-[(6R)-3-methyl-2H,4H,5H,6H-cyclopenta[c]pyrazol-6-yl]-1H-imidazole-4-carboxamide]
IC90 [1]: 293 nM

Cc1[nH]nc2c1CC[C@H]2NC(=O)c1cn(Cc2cnc(N3CC4CC4C3)nc2C(F)F)cn1 (stereo partly drawn) [Example 8, 1-[(2-{3-Azabicyclo[3.1.0]hexan-3-yl}-4-(difluoromethyl)-pyrimidin-5-yl)methyl]-N-[(6R)-3-methyl-2H,4H,5H,6H-cyclopenta[c]pyrazol-6-yl]-1H-imidazole-4-carboxamide]
IC90 [1]: 305 nM | IC50 (Human PKK): 2.1 nM

Cc1[nH]nc2c1CC[C@H]2NC(=O)c1cn(Cc2ccc(N3CC4CC4C3)nc2C(F)F)nn1 (stereo partly drawn) [Example 3, 1-[(6-{3-Azabicyclo[3.1.0]hexan-3-yl}-2-(difluoromethyl)-pyridin-3-yl)methyl]-N-[(6R)-3-methyl-2H,4H,5H,6H-cyclo-penta[c]pyrazol-6-yl]-1H-1,2,3-triazole-4-carboxamide]
IC90 [1]: 486 nM | IC50 (Human PKK): 0.9 nM

Cc1[nH]nc2c1CC[C@H]2NC(=O)c1cnn(Cc2ccc(N3CC4C(C3)C4(F)F)nc2C(F)F)c1 (stereo partly drawn) [Example 10, 1-[(6-{6,6-Difluoro-3-azabicyclo[3.1.0]hexan-3-yl}-2-(difluoromethyl)pyridin-3-yl)methyl]-N-[(6R)-3-methyl-2H,4H,5H,6H-cyclopenta-[c]pyrazol-6-yl]-1H-pyrazole-4-carboxamide]
IC90 [1]: 242 nM

Cc1[nH]nc2c1CC[C@H]2NC(=O)c1cn(Cc2ccc(N3CC4(CC4)C3)nc2C(F)F)nn1 [Example 4, 1-[(6-{5-Azaspiro[2.3]hexan-5-yl}-2-(difluoromethyl)pyridin-3-yl)methyl]-N-[(6R)-3-methyl-2H,4H,5H,6H-cydopenta[c]-pyrazol-6-yl]-1H-1,2,3-triazole-4-carboxamide]
IC90 [1]: 122 nM

Cc1[nH]nc2c1CC[C@H]2NC(=O)c1cn(Cc2ccc(N3CC4(CC4)C3)nc2C(F)F)cn1 [Example 5, 1-[(6-{5-Azaspiro[2.3]hexan-5-yl}-2-(difluoromethyl)-pyridin-3-yl)methyl]-N-[(6R)-3-methyl-2H,4H,5H,6H-cyclopenta[c]pyrazol-6-yl]-1H-imidazole-4-carboxamide]
IC90 [1]: 149 nM
